This passage reports TGI and GI50 results from PubChem BioAssay (NCI).

What all share (assay): DTP human tumour cell line panel, 48 h
Test [1] relates to HCT-116 colon.
Test [2] relates to SK-MEL-28 melanoma.
The subject of test [3] is CCRF-CEM leukemia.
Test [4] concerns NCI-H522 lung.
Test [5] relates to NCI-H226 lung.
Test [6] has as its system KM20L2 colon.
Test [7] has as its system HOP-62 NSCLC.
For test [8], the system named is SN12C renal.
Test [9] deals with SNB-78 CNS.
Test [10] has as its system KM12 colon.

Several values for one entry are separate records, joined by “and”; a condition that tells them apart may be missing. Equal values may be shown once.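 All cell lines were grown in 96-well plates and treated with compound for 48 hours. At the GI50, growth is halved. TGI: total growth inhibition.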

In the case of `O=c1c2cc3c(cc2c2cccc4c2n1CCC4)OCO3`, the TGI in test [1] was 71.1 µM; in [2] it was more than 100 µM; in test [3], more than 100 µM; in test [4], 42 µM; in test [5], more than 100 µM; in [6], more than 100 µM. Besides, the TGI in [7], in test [8], in test [9] and in [10] was more than 100 µM each time.
With `Cc1c2c(c(C)c3c1[nH]c1ccccc13)CN(C)CC2`, the TGI was 29.4 µM in [1]; 36.2 µM in test [2]; more than 100 µM in test [3]; 31.3 µM in test [4]; 56.5 µM in [5]; 41.6 µM in [6]. Besides, the TGI was more than 100 µM in test [7], 76.6 µM in test [8], 55.9 µM in [9] and 33.9 µM in [10].
For `NC(=O)NC1C(C(=O)O)N(Cc2ccccc2)C(=O)N1Cc1ccccc1` (configuration not stated), the TGI in test [1], in test [2], in [3], in [4], in test [5] and in test [6] was more than 100 µM throughout. The TGI in test [7], in [9] and in [10] was more than 100 µM each time.
`OCCN(CCO)c1cccc(N(CCO)CCO)n1`: the TGI in [1], in [2], in test [3], in [4], in [6] and in test [7] was more than 100 µM throughout. For the same compound, the TGI in [9] and in test [10] was more than 100 µM throughout.
For the compound `COc1ccc(C(=O)C#Cc2c[nH]c(=O)[nH]c2=O)cc1`, the TGI is 18.3 µM in test [1]; 30.1 µM in test [2]; 10.8 µM in test [3]; 10.6 µM in [4]; 42.4 µM in test [5]; 22.8 µM in [6]. For the same compound, the TGI in test [7] was 47.7 µM; in test [8], 19.4 µM; in [9], 37.9 µM; in test [10], more than 52.6 µM.
With `CCC1(CN(C)C)CC/C(=C\c2ccc(OC)c(OC)c2)C1=O` (configuration not stated), the TGI in test [1], in [2], in test [3], in [4], in test [5] and in test [6] was more than 100 µM each time. Besides, the TGI in test [7], in [8], in test [9] and in [10] was more than 100 µM each time.
On to `O=C1CCCCC12CCC/C2=N\O` (configuration not stated), for which the concentration for total growth inhibition (TGI) in test [1], in [2], in test [3], in test [4], in test [5] and in [6] was more than 100 µM each time. Besides, the TGI in test [7], in test [8], in test [9] and in [10] was more than 100 µM throughout.
Take `O=C(NCCCl)SCCO`: the TGI in test [1], in test [2], in test [3], in [4], in test [5] and in test [6] was more than 100 µM in each case. The TGI in test [7], in [8], in test [9] and in test [10] was more than 100 µM each time.
On to `COc1ccc2c(c1)-c1nn(CCCN(C)C)c3ccc([N+](=O)[O-])c(c13)N2`, for which the TGI in [1] was 4.02 µM and 4.42 µM; in test [2], 7.78 µM and 12.6 µM; in test [3], 6.45 µM and 8.72 µM; in [4], 1.03 µM and 2.26 µM; in test [5], 3.75 µM and 6.86 µM; in [6], 4.98 µM and 10.9 µM. The TGI in test [7] is 1.06 µM and 5.26 µM; in test [8], 3.68 µM and 10.1 µM; in [10], 2.54 µM and 2.58 µM. Besides, the GI50 in [2] is 0.77 µM and 1.75 µM; in test [3], 0.0825 µM and 0.624 µM; in test [4], 0.117 µM and 0.385 µM; in test [5], 0.25 µM and 0.664 µM; in test [6] it was 0.0855 µM and 0.49 µM; in [7] it was 0.104 µM and 0.686 µM. Also, the GI50 in test [10] was 0.194 µM and 0.43 µM.
On to `Cc1ccc(S(=O)(=O)N/N=C/C(C)C)cc1`, for which the TGI in test [1], in [3], in test [6], in [7], in [8] and in test [9] was more than 100 µM in each case. In addition, the TGI in [10] was more than 100 µM.
With `COCCOCCOCCOc1cccc2c1C(=O)c1cccc(OCCOCCOCCOC)c1C2=O`, the TGI in test [1], in test [2], in [3], in test [6], in test [7] and in test [8] was more than 100 µM throughout. This compound also gave a TGI in test [9] of more than 100 µM.
As for `c1ccc(OCc2nnc3n2N=C(c2ccccc2)CS3)cc1`, the TGI in test [1], in test [2], in [3], in test [4], in test [5] and in test [7] was more than 100 µM in each case. The concentration for total growth inhibition (TGI) in test [8], in test [9] and in test [10] was more than 100 µM in each case.
Take `O=c1cccc(-c2cccc(=O)[nH]2)[nH]1`: the TGI in test [1], in [2], in test [3], in test [5], in test [8] and in test [9] was more than 100 µM throughout. For the same compound, in test [10], the TGI is more than 100 µM.
Regarding `COc1cc2ccnc3c(=C(SC)SC)c(=O)c(c1OC)c23`, the TGI in test [2] was 26 µM; in [3], 17 µM; in [4], 5.18 µM; in test [6], 32.6 µM; in test [7], more than 100 µM; in [8], 29.9 µM. The compound also registered a TGI in test [10] of 53.5 µM.
Take `O=C1OC(=O)C2C3C=CC(C12)C1C2C=CC2C31` (configuration not stated): the TGI in test [1], in test [2], in test [3], in [4], in test [5] and in [6] was more than 100 µM throughout. The TGI in test [7], in test [8] and in test [10] was more than 100 µM throughout.
With `COc1cc(Cl)cc(-c2nn(-c3cccc(NC(=O)Nc4ccc(Cl)c(Cl)c4)c3)cc2-c2ccncc2)c1`, the GI50 in test [1] was 2.02 µM; in test [2], 2.96 µM; in test [3], 2 µM; in test [4] it was 1.29 µM; in test [5] it was 3.06 µM; in [7], 3.38 µM. Moreover, the GI50 was 3.1 µM in test [8] and 2.02 µM in test [10]. Moreover, the TGI in test [1] was more than 100 µM; in [2] it was 36.8 µM; in test [3], 6 µM; in test [4], 4.48 µM; in test [5], more than 100 µM; in test [7], 35.1 µM. The TGI in [8] was more than 100 µM; in test [10], 10.8 µM.
Take `COC(=O)C(C(=O)OC)C(Br)C(Br)C(Br)c1ccccc1` (configuration not stated): the GI50 in test [1] was 2 µM; in test [2], 12.5 µM; in [3], 2.08 µM; in test [4], 1.69 µM; in [5], 15.1 µM; in [7], 16.9 µM. Moreover, the GI50 in test [8] is 14 µM; in test [10], 17 µM. For the same compound, the TGI stood at 3.82 µM in [1]; 25.3 µM in test [2]; 5.79 µM in [3]; 3.33 µM in [4]; 29.5 µM in test [5]; 36 µM in test [7]. The TGI worked out at 27.3 µM in [8] and 32.4 µM in test [10].
In the case of `NC1(Cc2ccc(Cl)cc2)CCN(c2ncnc3[nH]ccc23)CC1`, the GI50 in test [1] was 5.18 µM; in test [2] it was 6.63 µM; in [3], 3.05 µM; in test [4], 12.6 µM; in [5] it was 6.96 µM; in test [7] it was 3.63 µM. The GI50 in [8] is 4.4 µM; in test [10], 3.02 µM. Moreover, the TGI is 38.7 µM in [1]; 19.8 µM in test [2]; 24 µM in test [3]; 27.7 µM in test [4]; 25.1 µM in test [5]; 17.2 µM in test [7]. Further, the TGI in test [8] stood at 28.8 µM; in test [10], 13.9 µM.
Consider `Cc1[nH]c2cc(F)ccc2c1-c1nc2c3cccnc3c3ncccc3c2[nH]1`, for which the GI50 in test [1] is 0.164 µM; in test [2], 0.239 µM; in [3], 0.0672 µM; in test [4], 0.391 µM; in test [5] it was 0.168 µM; in [7], 0.27 µM. Besides, the GI50 in test [8] is 0.399 µM; in test [10] it was 0.379 µM. Also, the TGI in test [1] came out at 1.5 µM; in [2], 1.72 µM; in test [3] it was 0.644 µM; in test [4], 1.46 µM; in test [5], 0.812 µM; in test [7] it was 1.27 µM. The total growth inhibition concentration (TGI) in test [8] amounted to 3.38 µM; in test [10], 1.78 µM.
As to `COc1ccc(NC(=O)CC(=O)n2nc(C)c(N=Nc3ccccc3C(=O)O)c2C)cc1`, the total growth inhibition concentration (TGI) in test [1], in test [2], in [3], in test [4], in [6] and in test [7] was more than 100 µM in each case. Further, the concentration for total growth inhibition (TGI) in test [8], in test [9] and in test [10] was more than 100 µM each time.

As a reminder, the TGI is the concentration giving total growth inhibition. The low end stands for more potent growth arrest, the high end for less potent growth arrest. What is called GI50 is the concentration at which growth is held to half of that of the control.
